Experimental data published in US20110009335A1, “Anticancer Treatments” (priority 2008, published 2011).
Like-named read-outs stand apart in the source and are kept apart here. Starred links: 1 amine or outer side, 2 acyl side, 3 side chain; linkers in the order of their positions; H or OH if unused. Positions of bridges follow the written chain, without caps; N, C: chain ends. Non-standard residues stand in square brackets, D forms with d. Residues, ends and D or L forms follow the SMILES beside them. *: point of attachment. X1 = CC[C@H](C)[C@@H](N[*:1])[C@@H](O)CC(=O)O[C@H](C(=O)[C@H](C)C(=O)[*:2])C(C)C; NMeY = CN[C@@H](Cc1ccc(O)cc1)C(=O)O; dNMeL = CN[C@H](CC(C)C)C(=O)O; Pyruvoyl = CC(=O)C(=O)*

How the values were obtained:
[1] = test system: CAKI-1 human renal tumor xenograft; assay: Aplidine with temsirolimus, CAKI-1 xenograft in athymic nude mice (Example 4); type: in vivo; conditions: for % Inhibition G2: aplidine 0.06 mg/kg/day
Protocol: Female athymic nude mice (Harlan Sprague Dawley, Madison, Wis.) were utilized for all experiments. Mice were implanted with a cell suspension when mice were 6-8 weeks of age. Animals were housed in ventilated rack caging with food and water ad libitum. The mice were acclimated for at least 5 days prior to tumor implantation. […] The tumor model used in this study was CAKI-1, which was implanted in the animals as disclosed in Example 2.
Tumor measurements were determined as disclosed in Example 1. When tumor growth was within an average size range of 140±34 mg (mean±SD), mice were randomized into the treatment and control groups based on tumor weight by using LabCat® In Life module V 8.0 SP1 tumor tracking and measurement software.
(§1) The treatment of CAKI-1-tumor-bearing mice was initiated on DPI (Day Post Implantation) 21. Body weights were recorded on treatment days and when tumor sizes were measured. In those days wherein the two drugs were administered the same day, the combination therapy groups were treated by co-administering the two drugs at the same time, with no attempt to sequence the treatments.
(§2) Aplidine was provided in the form of vials of lyophilized aplidine powder which was reconstituted in Cremophor EL/ethanol/water (CEW) 15/15/70 to a concentration of 0.5 mg/ml. The aplidine solution in CEW was diluted in 0.9% Saline to the dosing formulation concentrations, being the final proportion of CEW of 0.18/0.18/0.84.
(§3) Temsirolimus was provided in the form of vials containing a non-aqueous, ethanolic, sterile solution of temsirolimus, 25 mg/ml. […] Then, the solution was further diluted in 0.9% Saline to the dosing formulation concentrations.
(§4) Tumor size measurements were recorded twice weekly from the treatment initiation until the termination of the study. Tumor growth inhibition was assessed comparing the mean tumor weight between the two agents in combination (aplidine and temsirolimus) against temsirolimus mean tumor weight at the different concentrations assayed.
(§5) Mean, standard deviation and standard error of the mean were determined for tumor volume for all animal groups at all assessments. Student's t test was performed on tumor volumes at each measurement day, including at the end of the study, to determine whether there were any statistically significant differences between combination treatment groups and single monotherapy treatment groups.
The definition and criteria for the evaluation of potentiation and the degree of additivity for the combination therapy were the same as those disclosed in Example 1.

[2] = test system: NCI-H-460 human NSCLC xenograft; assay: Aplidine with temsirolimus, NCI-H-460 xenograft in athymic nude mice (Example 5); type: in vivo; conditions: for % Inhibition G2: aplidine 0.06 mg/kg/day
Protocol: Female athymic nude mice (Harlan Sprague Dawley, Madison, Wis.) were utilized for all experiments. Mice were implanted with a cell suspension when mice were 6-8 weeks of age. Animals were housed in ventilated rack caging with food and water ad libitum. The mice were acclimated for at least 5 days prior to tumor implantation.
The tumor model used in this study was NCI-H-460, which is a human NSCLC cell line obtained from the ATCC (Manassas, Va.). NCI-H-460 cells were grown in RPMI-1640 medium, 10% FBS, 10 mM Hepes, 1 mM sodium pyruvate, 4.5 g/l glucose, 1.5 g/l sodium bicarbonate and 2 mM L-glutamine. Cells from in vitro passage 11 were implanted SC into study mice: 5×10^6 cells/mouse in 0.2 ml 50% Matrigel/50% medium without antibiotics or serum, using a 23 G needle and 1 cc syringe.
Tumor measurements were determined as disclosed in Example 1. When tumor growth was within an average size range of 110±25 mg (mean±SD), mice were randomized into the treatment and control groups based on tumor weight by using LabCat® In Life module V 8.0 SP1 tumor tracking and measurement software.
as §1, with “NCI-H-460-tumor-bearing” for “CAKI-1-tumor-bearing”, “7.” for “21.”
as §2, §3, §4, §5
The definition and criteria for the evaluation of potentiation and the degree of additivity for the combination therapy were the same as those disclose in Example 1.

[3] = G2: aplidine 0.060 mg/kg/day IP
[4] = temsirolimus 10 and 20 mg/kg/day

With `CC[C@H](C)[C@H]1NC(=O)[C@@H](NC(=O)[C@@H](CC(C)C)N(C)C(=O)[C@@H]2CCCN2C(=O)C(C)=O)[C@@H](C)OC(=O)[C@H](Cc2ccc(OC)cc2)N(C)C(=O)[C@@H]2CCCN2C(=O)[C@H](CC(C)C)NC(=O)[C@@H](C)C(=O)[C@H](C(C)C)OC(=O)C[C@@H]1O` [aplidine, dehydrodidemnin B] (Pyruvoyl-P[dNMeL]T[X1]LP[NMeY](Me); ester 3-C) the “% T/C on day 21” value [1, 3] was 98.2%, the “% T/C on day 24” value [1, 3] was 94.6% and the “% T/C on day 27” value [1, 3] was 75.6%. For the same compound, the “% T/C on day 30” value [1, 3] was 66.0%, the “% T/C on day 34” value [1, 3] was 81.0% and the “% T/C on day 38” value [1, 3] was 91.1%. For the same compound, the “% T/C on day 42” value [1, 3] was 84.1%, the “% T/C on day 45” value [1, 3] was 80.7% and the “% T/C on day 48” value [1, 3] was 80.1%. For the same compound, the “% T/C on day 56” value [1, 3] was 89.8%, the “% T/C on day 58” value [1, 3] was 89.9% and the “% Inhibition G2” value ([1]; day 21) was 1.8%. The “% Inhibition G2” value ([1]; day 24) was 5.4%, the “% Inhibition G2” value ([1]; day 27) was 24.4% and the “% Inhibition G2” value ([1]; day 30) was 34.0%. For the same compound, the “% Inhibition G2” value ([1]; day 34) was 19.0%, the “% Inhibition G2” value ([1]; day 38) was 8.9% and the “% Inhibition G2” value ([1]; day 42) was 15.9%. For the same compound, the “% Inhibition G2” value ([1]; day 45) was 19.3%, the “% Inhibition G2” value ([1]; day 48) was 19.9% and the “% Inhibition G2” value ([1]; day 56) was 10.2%. For the same compound, the “% Inhibition G2” value ([1]; day 58) was 10.1%, the “antitumor activity as single agent (monotherapy)” value [1, 4] was “inactive” and the “% T/C on day 7” value [2, 3] was 101.2%. For the same compound, the “% T/C on day 10” value [2, 3] was 95.5%, the “% T/C on day 13” value [2, 3] was 73.2% and the “% T/C on day 16” value [2, 3] was 77.4%. The “% T/C on day 20” value [2, 3] was 88.5%, the “% T/C on day 23” value [2, 3] was 84.3% and the “% T/C on day 27” value [2, 3] was 86.4%. The “% T/C on day 29” value [2, 3] was 96.9%, the “% T/C on day 31” value [2, 3] was 96.0% and the “% Inhibition G2” value ([2]; day 7) was −1.2%. For the same compound, the “% Inhibition G2” value ([2]; day 10) was 4.5%, the “% Inhibition G2” value ([2]; day 13) was 26.8% and the “% Inhibition G2” value ([2]; day 16) was 22.6%. The “% Inhibition G2” value ([2]; day 20) was 11.5%, the “% Inhibition G2” value ([2]; day 23) was 15.7% and the “% Inhibition G2” value ([2]; day 27) was 13.6%. The “% Inhibition G2” value ([2]; day 29) was 3.1%, the “% Inhibition G2” value ([2]; day 31) was 4.0% and the “antitumor activity as single agent (monotherapy)” value [2, 4] was “inactive”. For the same compound, the “effect on body weight / toxicity” value (A498 study, Example 2 (sunitinib)) was “did not cause a significant decline in mean body weight”, the “effect on body weight / toxicity” value (CAKI-1 study, Example 1 (sorafenib)) was “did not cause a significant decline in mean body weight” and the “effect on body weight / toxicity” value (CAKI-1 study, Example 2 (sunitinib)) was “did not cause a significant decline in mean body weight”. For the same compound, the “effect on body weight / toxicity” value (CAKI-1 study, Example 4 (temsirolimus)) was “did not cause a significant decline in mean body weight”, the “effect on body weight / toxicity” value (HepG2 study, Example 6 (sorafenib)) was “did not cause a significant decline in mean body weight” and the “effect on body weight / toxicity” value (LOX-IMVI study, Example 7 (sorafenib)) was “did not cause a significant decline in mean body weight”. For the same compound, the “effect on body weight / toxicity” value (MRI-H-121 study, Example 2 (sunitinib)) was “did not cause a significant decline in mean body weight” and the “effect on body weight / toxicity” value (NCI-H-460 study, Example 5 (temsirolimus)) was “did not cause a significant decline in mean body weight”.
In the case of `CNC(=O)c1cc(Oc2ccc(NC(=O)Nc3ccc(Cl)c(C(F)(F)F)c3)cc2)ccn1` [sorafenib], the “effect on body weight / toxicity” value (mouse, in vivo) is reported as “did not cause a significant decline in mean body weight”.
